Assay results published in article PMC10782225 (The FASEB Journal, 2023).
Read-outs that look alike come from different tables or passages of the source.

Columns and labels:
[1] = molecular target: T1, Inner pocket mutant α7β2‐nAChR (β2[S108T, V111L,W120Y]) (Homo sapiens, UniProt P17787+P36544, S133T/V136L/W145Y); experiment: ACh concentration‐response curve, TEVC, inner pocket α7β2‐nAChR; type: cell-based; settings: mean ± SEM of 15–19 oocytes
T1 construct: expressed in transfected cells; host or cells: Xenopus laevis oocytes, cRNA injection

[2] = molecular target: T2, Outer pocket mutant α7β2‐nAChR (β2[K79T,F119Q]) (Homo sapiens, UniProt P17787+P36544, F144Q/K104T); experiment: ACh concentration‐response curve, TEVC, outer pocket α7β2‐nAChR; type: cell-based; settings: mean ± SEM of 15–19 oocytes
T2 construct: expressed in transfected cells; host or cells: Xenopus laevis oocytes, cRNA injection

human α7β2‐nAChR = molecular target: T3, human α7β2‐nAChR (Homo sapiens, UniProt P17787+P36544); experiment: cell-based
T3 construct: expressed in transfected cells; host or cells: Xenopus laevis oocytes, cRNA injection

human α7‐only‐nAChR = molecular target: T4, human α7‐only‐nAChR (Homo sapiens, UniProt P36544); experiment: cell-based; settings: SEM; for koff: read-out: k off α7‐only; for kon: read-out: k on α7‐only
T4 construct: expressed in transfected cells; host or cells: Xenopus laevis oocytes, cRNA injection

α3β4‐nAChR = molecular target: T5, α3β4‐nAChR (Homo sapiens, UniProt P30926+P32297); type: cell-based
T5 construct: expressed in transfected cells; host or cells: Xenopus laevis oocytes, cRNA injection

[3] = molecular target: T6, Inner pocket mutant α7β2‐nAChR (β2[S108T, V111L,W120Y] at both α7(+)/(−)β2 subunit interfaces) (Homo sapiens, UniProt P17787+P36544, S133T/V136L/W145Y); experiment: cell-based; settings: SEM; for koff: read-out: k off, “Inner pocket” α7β2‐nAChR; for kon: read-out: k on, “Inner pocket” α7β2‐nAChR
T6 construct: expressed in transfected cells; host or cells: Xenopus laevis oocytes, cRNA injection

α9α10‐nAChR = molecular target: T7, α9α10‐nAChR (Homo sapiens, UniProt Q9GZZ6+Q9UGM1); experiment: cell-based
T7 construct: expressed in transfected cells; host or cells: Xenopus laevis oocytes, cRNA injection

[4] = molecular target: T8, Outer pocket mutant α7β2‐nAChR (β2[K79T,F119Q] at both α7(+)/(−)β2 subunit interfaces) (Homo sapiens, UniProt P17787+P36544, F144Q/K104T); experiment: cell-based; settings: SEM; for koff: read-out: k off, “Outer pocket” α7β2‐nAChR; for kon: read-out: k on, “Outer pocket” α7β2‐nAChR
T8 construct: expressed in transfected cells; host or cells: Xenopus laevis oocytes, cRNA injection

α3β2‐nAChR = molecular target: T9, α3β2‐nAChR (Homo sapiens, UniProt P17787+P32297); type: cell-based
T9 construct: expressed in transfected cells; host or cells: Xenopus laevis oocytes, cRNA injection

α6/3β2β3‐nAChR = molecular target: T10, α6/3β2β3‐nAChR (Homo sapiens, UniProt P17787+P32297+Q05901+Q15825); type: cell-based
T10 construct: expressed in transfected cells; host or cells: Xenopus laevis oocytes, cRNA injection

[5] = ACh 10 μM – 10 mM, half‐log steps, 3 s, 60 s apart
[6] = read-out: k off, Unaltered α7β2‐nAChR, SEM
[7] = read-out: k on, Unaltered α7β2‐nAChR, SEM

T3 sequence (P36544 23-502 limits assumed): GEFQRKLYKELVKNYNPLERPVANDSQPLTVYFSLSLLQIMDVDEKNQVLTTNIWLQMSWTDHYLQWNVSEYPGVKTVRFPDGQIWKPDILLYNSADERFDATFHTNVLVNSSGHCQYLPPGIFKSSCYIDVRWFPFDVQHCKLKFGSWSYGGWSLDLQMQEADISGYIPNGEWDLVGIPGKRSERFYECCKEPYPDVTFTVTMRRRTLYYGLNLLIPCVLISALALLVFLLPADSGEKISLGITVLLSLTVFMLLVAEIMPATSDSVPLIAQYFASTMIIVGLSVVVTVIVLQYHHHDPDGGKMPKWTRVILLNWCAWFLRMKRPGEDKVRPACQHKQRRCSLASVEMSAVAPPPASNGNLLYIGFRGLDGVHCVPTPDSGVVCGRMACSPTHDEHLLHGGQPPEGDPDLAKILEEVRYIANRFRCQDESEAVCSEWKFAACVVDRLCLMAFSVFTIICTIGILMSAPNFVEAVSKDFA
T3 sequence (P17787 26-502 limits assumed): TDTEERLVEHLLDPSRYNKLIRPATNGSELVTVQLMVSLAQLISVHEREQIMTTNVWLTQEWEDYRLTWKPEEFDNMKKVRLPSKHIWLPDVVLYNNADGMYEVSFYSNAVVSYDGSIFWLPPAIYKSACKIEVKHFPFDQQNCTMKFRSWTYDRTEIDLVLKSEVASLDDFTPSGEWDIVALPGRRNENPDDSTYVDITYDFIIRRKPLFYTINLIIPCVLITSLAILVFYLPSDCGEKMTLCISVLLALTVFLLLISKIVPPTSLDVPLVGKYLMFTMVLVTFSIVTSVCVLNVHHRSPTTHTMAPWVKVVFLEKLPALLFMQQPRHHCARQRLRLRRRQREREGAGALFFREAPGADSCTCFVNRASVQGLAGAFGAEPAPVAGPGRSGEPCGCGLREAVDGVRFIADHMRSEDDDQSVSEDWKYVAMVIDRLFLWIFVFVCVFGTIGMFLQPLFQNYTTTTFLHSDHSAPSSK
T4 sequence (P36544 23-502 limits assumed): as the sequence (P36544 23-502 limits assumed) above
T8 sequence (P17787 26-502 K104T/F144Q): as the sequence (P17787 26-502 limits assumed) above, with K79T, F119Q counted along it
T8 sequence (P36544 23-502): as the sequence (P36544 23-502 limits assumed) above
T6 sequence (P17787 26-502 S133T/V136L/W145Y): as the sequence (P17787 26-502 limits assumed) above, with S108T, V111L, W120Y counted along it
T6 sequence (P36544 23-502): as the sequence (P36544 23-502 limits assumed) above
T1 sequence (P36544 23-502): as the sequence (P36544 23-502 limits assumed) above
T1 sequence (P17787 26-502 S133T/V136L/W145Y): as the sequence (P17787 26-502 limits assumed) above, with S108T, V111L, W120Y counted along it
T2 sequence (P36544 23-502): as the sequence (P36544 23-502 limits assumed) above
T2 sequence (P17787 26-502 K104T/F144Q): as the sequence (P17787 26-502 limits assumed) above, with K79T, F119Q counted along it
T5 sequence (P30926 22-498): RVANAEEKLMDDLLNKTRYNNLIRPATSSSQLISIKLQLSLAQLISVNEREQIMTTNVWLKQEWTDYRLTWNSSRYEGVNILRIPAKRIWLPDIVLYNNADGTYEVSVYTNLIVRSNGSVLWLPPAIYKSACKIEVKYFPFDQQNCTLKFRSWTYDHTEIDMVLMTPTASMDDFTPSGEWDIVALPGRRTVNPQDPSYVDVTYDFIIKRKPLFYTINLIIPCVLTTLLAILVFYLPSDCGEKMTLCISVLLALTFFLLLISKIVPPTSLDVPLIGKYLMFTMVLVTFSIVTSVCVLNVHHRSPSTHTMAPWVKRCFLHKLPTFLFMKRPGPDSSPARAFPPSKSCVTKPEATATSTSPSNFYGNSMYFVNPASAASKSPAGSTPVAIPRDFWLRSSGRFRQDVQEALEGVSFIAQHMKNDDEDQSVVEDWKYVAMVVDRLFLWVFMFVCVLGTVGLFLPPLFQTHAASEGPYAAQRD
T5 sequence (P32297 32-505): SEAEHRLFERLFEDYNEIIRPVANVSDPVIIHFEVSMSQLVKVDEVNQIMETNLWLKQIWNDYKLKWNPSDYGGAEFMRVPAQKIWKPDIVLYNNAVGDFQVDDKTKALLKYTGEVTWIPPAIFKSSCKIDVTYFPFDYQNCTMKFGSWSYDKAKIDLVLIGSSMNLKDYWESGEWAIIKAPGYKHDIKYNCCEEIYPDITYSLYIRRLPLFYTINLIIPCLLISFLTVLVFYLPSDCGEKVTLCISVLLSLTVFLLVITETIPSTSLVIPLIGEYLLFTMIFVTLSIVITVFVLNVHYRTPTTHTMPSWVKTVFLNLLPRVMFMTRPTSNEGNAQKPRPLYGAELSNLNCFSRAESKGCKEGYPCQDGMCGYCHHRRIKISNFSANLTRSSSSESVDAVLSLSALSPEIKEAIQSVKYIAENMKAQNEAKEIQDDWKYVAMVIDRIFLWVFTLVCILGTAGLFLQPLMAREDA
T7 sequence (Q9UGM1 26-479 limits assumed): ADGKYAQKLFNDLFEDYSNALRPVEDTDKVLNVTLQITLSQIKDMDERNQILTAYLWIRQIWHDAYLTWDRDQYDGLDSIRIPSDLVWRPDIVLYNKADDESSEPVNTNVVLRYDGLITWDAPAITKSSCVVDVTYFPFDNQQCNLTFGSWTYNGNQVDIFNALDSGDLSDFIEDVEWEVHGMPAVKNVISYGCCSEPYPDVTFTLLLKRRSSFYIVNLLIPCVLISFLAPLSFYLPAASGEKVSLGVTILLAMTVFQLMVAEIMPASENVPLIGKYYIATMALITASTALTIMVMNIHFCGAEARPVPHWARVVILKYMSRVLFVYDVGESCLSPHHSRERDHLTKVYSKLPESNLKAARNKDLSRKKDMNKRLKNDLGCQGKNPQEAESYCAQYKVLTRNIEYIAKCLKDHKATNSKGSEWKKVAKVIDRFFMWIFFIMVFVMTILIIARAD
T7 sequence (Q9GZZ6 25-450): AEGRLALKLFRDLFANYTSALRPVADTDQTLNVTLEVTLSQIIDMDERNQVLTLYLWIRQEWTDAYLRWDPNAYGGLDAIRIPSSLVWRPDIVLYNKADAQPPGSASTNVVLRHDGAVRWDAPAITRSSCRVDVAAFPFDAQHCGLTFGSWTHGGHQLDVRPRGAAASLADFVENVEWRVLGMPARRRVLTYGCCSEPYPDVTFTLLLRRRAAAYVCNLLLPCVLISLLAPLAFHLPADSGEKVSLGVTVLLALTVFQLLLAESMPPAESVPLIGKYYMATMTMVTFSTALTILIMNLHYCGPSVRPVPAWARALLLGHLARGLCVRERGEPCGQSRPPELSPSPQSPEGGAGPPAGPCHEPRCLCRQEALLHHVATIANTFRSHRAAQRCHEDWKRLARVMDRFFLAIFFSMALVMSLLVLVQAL
T10 sequence (P17787 26-502): as the sequence (P17787 26-502 limits assumed) above
T10 sequence (Q15825+P32297 fused with the stated changes): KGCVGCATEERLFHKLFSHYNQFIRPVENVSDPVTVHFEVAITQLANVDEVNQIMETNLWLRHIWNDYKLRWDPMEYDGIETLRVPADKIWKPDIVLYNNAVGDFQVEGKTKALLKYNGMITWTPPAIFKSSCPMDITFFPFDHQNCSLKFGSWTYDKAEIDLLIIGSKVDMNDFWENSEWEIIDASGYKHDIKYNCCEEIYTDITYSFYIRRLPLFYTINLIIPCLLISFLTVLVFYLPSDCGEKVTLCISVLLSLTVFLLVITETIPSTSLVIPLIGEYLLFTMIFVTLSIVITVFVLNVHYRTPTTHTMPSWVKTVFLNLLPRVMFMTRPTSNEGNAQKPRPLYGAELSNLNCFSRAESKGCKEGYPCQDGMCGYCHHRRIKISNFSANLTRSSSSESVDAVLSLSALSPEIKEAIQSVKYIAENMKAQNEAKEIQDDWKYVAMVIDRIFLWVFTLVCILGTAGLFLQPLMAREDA
T10 sequence (Q05901 25-458): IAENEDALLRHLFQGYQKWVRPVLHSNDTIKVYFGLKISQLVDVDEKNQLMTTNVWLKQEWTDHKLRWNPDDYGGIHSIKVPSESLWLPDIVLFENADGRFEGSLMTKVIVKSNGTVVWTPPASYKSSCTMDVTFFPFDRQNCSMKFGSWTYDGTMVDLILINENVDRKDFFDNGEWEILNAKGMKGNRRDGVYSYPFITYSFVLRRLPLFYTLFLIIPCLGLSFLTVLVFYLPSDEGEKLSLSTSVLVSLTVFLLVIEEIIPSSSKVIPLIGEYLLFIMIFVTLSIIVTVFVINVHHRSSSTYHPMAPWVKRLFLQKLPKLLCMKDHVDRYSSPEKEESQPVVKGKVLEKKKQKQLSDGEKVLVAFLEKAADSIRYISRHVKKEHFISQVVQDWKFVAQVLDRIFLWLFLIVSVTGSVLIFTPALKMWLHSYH
T9 sequence (P17787 26-502): as the sequence (P17787 26-502 limits assumed) above
T9 sequence (P32297 32-505): as the sequence (P32297 32-505) above

CC(=O)OCC[N+](C)(C)C [ACh, acetylcholine]
Imax, maximum function induced by ACh, inner pocket α7β2‐nAChR [1, 5]: 1539 ± 193 nA
hillslope (nH), inner pocket α7β2‐nAChR ([1]; logistic fit per oocyte): 0.93 ± 0.06
Imax, maximum function induced by ACh, outer pocket α7β2‐nAChR [2, 5]: 1401 ± 137 nA
hillslope (nH), outer pocket α7β2‐nAChR ([2]; logistic fit per oocyte): 1.17 ± 0.12

CC(C)C[C@@H]1NC(=O)[C@H](Cc2ccccc2)NC(=O)[C@@H]2CSSC[C@H](NC(=O)CN)C(=O)N[C@@H](CSSC[C@@H](C(N)=O)NC(=O)[C@H](Cc3ccc(O)cc3)NC(=O)[C@H](CCC(=O)O)NC(=O)[C@@H]3CCCN3C(=O)[C@H](CC(N)=O)NC(=O)[C@H](CC(N)=O)NC1=O)C(=O)N[C@@H](CO)C(=O)N[C@@H](Cc1c[nH]cn1)C(=O)N1CCC[C@H]1C(=O)N1CCC[C@H]1C(=O)N2 [[D14E]]
Kd (human α7β2‐nAChR; K d α7β2, SEM): 1.4 ± 0.3 nM
koff (human α7β2‐nAChR; read-out: k off α7β2, SEM): 6e-05 s⁻¹
kon (human α7β2‐nAChR; read-out: k on α7β2, SEM): 49500 M⁻¹ s⁻¹
Kd (human α7‐only‐nAChR): 2 ± 0.6 nM
koff (human α7‐only‐nAChR): 0.000111 s⁻¹
kon (human α7‐only‐nAChR): 57500 M⁻¹ s⁻¹

CC(C)C[C@@H]1NC(=O)[C@H](CC(C)C)NC(=O)[C@@H]2CSSC[C@H](NC(=O)CN)C(=O)N[C@@H](CSSC[C@@H](C(N)=O)NC(=O)[C@H](Cc3ccc(O)cc3)NC(=O)[C@H](CC(=O)O)NC(=O)[C@@H]3CCCN3C(=O)[C@H](CC(N)=O)NC(=O)[C@H](CC(N)=O)NC1=O)C(=O)N[C@@H](CO)C(=O)N[C@@H](Cc1c[nH]cn1)C(=O)N1CCC[C@H]1C(=O)N1CCC[C@H]1C(=O)N2 [[F9L]]
block of ACh‐induced function, α3β4‐nAChR (α3β4‐nAChR): > 90%
Kd (human α7β2‐nAChR; K d α7β2, SEM): 15 ± 2 nM
koff (human α7β2‐nAChR; read-out: k off α7β2, SEM): 0.000292 s⁻¹
kon (human α7β2‐nAChR; read-out: k on α7β2, SEM): 20500 M⁻¹ s⁻¹
Kd (human α7‐only‐nAChR): 20 ± 3 nM
koff (human α7‐only‐nAChR): 0.000637 s⁻¹
kon (human α7‐only‐nAChR): 32800 M⁻¹ s⁻¹

NCC(=O)N[C@H]1CSSC[C@@H]2NC(=O)[C@@H]3CCCN3C(=O)[C@@H]3CCCN3C(=O)[C@H](Cc3c[nH]cn3)NC(=O)[C@H](CO)NC(=O)[C@H](CSSC[C@@H](C(N)=O)NC(=O)[C@H](Cc3ccc(O)cc3)NC(=O)[C@H](CC(=O)O)NC(=O)[C@@H]3CCCN3C(=O)[C@H](CC(N)=O)NC(=O)[C@H](CC(N)=O)NC(=O)[C@H](Cc3ccc(O)cc3)NC(=O)[C@H](Cc3ccccc3)NC2=O)NC1=O [[L10Y]]
Kd [3]: 24 ± 3 nM
koff [3]: 0.000537 s⁻¹
kon [3]: 21700 M⁻¹ s⁻¹
IC50 (α9α10‐nAChR): > 300 nM
Kd [4]: 28 ± 4 nM
koff [4]: 0.00064 s⁻¹
kon [4]: 24000 M⁻¹ s⁻¹
Kd (human α7β2‐nAChR; K d α7β2): 1 to 2 nM
Kd (human α7β2‐nAChR; K d α7β2, SEM): 12 ± 3 nM
Kd (human α7β2‐nAChR; K d, Unaltered α7β2‐nAChR, SEM): 20 ± 4 nM
koff (human α7β2‐nAChR; read-out: k off α7β2, SEM): 0.000462 s⁻¹
koff (human α7β2‐nAChR; [6]): 0.000508 s⁻¹
kon (human α7β2‐nAChR; read-out: k on α7β2, SEM): 50200 M⁻¹ s⁻¹
kon (human α7β2‐nAChR; [7]): 30700 M⁻¹ s⁻¹
Kd (human α7‐only‐nAChR): 671 ± 136 nM
koff (human α7‐only‐nAChR): 0.0044 s⁻¹
kon (human α7‐only‐nAChR): 6670 M⁻¹ s⁻¹

CC(C)C[C@@H]1NC(=O)[C@H](Cc2ccccc2)NC(=O)[C@@H]2CSSC[C@H](NC(=O)CN)C(=O)N[C@@H](CSSC[C@@H](C(N)=O)NC(=O)[C@H](Cc3ccc(O)cc3)NC(=O)[C@H](CC(=O)O)NC(=O)[C@@H]3CCCN3C(=O)[C@H](Cc3c[nH]cn3)NC(=O)[C@H](CC(N)=O)NC1=O)C(=O)N[C@@H](CO)C(=O)N[C@@H](Cc1c[nH]cn1)C(=O)N1CCC[C@H]1C(=O)N1CCC[C@H]1C(=O)N2 [[N12H]]
Kd (human α7β2‐nAChR; K d α7β2, SEM): 13 ± 2 nM
koff (human α7β2‐nAChR; read-out: k off α7β2, SEM): 0.000308 s⁻¹
kon (human α7β2‐nAChR; read-out: k on α7β2, SEM): 24500 M⁻¹ s⁻¹
Kd (human α7‐only‐nAChR): 81 ± 19 nM
koff (human α7‐only‐nAChR): 0.0011 s⁻¹
kon (human α7‐only‐nAChR): 18300 M⁻¹ s⁻¹

CC(C)C[C@@H]1NC(=O)[C@H](Cc2ccccc2)NC(=O)[C@@H]2CSSC[C@H](NC(=O)CN)C(=O)N[C@@H](CSSC[C@@H](C(N)=O)NC(=O)[C@H](Cc3ccc(O)cc3)NC(=O)[C@H](CC(=O)O)NC(=O)[C@@H]3CCCN3C(=O)[C@H](CC(N)=O)NC(=O)[C@H](CC(N)=O)NC1=O)C(=O)N[C@@H](CCCNC(=N)N)C(=O)N[C@@H](Cc1c[nH]cn1)C(=O)N1CCC[C@H]1C(=O)N1CCC[C@H]1C(=O)N2 [[S4R]]
Kd [3]: 5.31 ± 1.04 nM
koff [3]: 0.000232 s⁻¹
kon [3]: 45500 M⁻¹ s⁻¹
Kd [4]: 6.74 ± 2.67 nM
koff [4]: 0.000255 s⁻¹
kon [4]: 64300 M⁻¹ s⁻¹
Kd (human α7β2‐nAChR; K d α7β2, SEM): 0.83 ± 0.05 nM
Kd (human α7β2‐nAChR; K d, Unaltered α7β2‐nAChR, SEM): 1.9 ± 0.21 nM
koff (human α7β2‐nAChR; read-out: k off α7β2, SEM): 9.33e-05 s⁻¹
koff (human α7β2‐nAChR; [6]): 0.000124 s⁻¹
kon (human α7β2‐nAChR; read-out: k on α7β2, SEM): 112000 M⁻¹ s⁻¹
kon (human α7β2‐nAChR; [7]): 67500 M⁻¹ s⁻¹
Kd (human α7‐only‐nAChR): 15 ± 6 nM
koff (human α7‐only‐nAChR): 0.000597 s⁻¹
kon (human α7‐only‐nAChR): 56700 M⁻¹ s⁻¹

CC(C)C[C@@H]1NC(=O)[C@H](Cc2ccccc2)NC(=O)[C@@H]2CSSC[C@H](NC(=O)CN)C(=O)N[C@@H](CSSC[C@@H](C(N)=O)NC(=O)[C@H](CC(=O)O)NC(=O)[C@H](CC(=O)O)NC(=O)[C@@H]3CCCN3C(=O)[C@H](CC(N)=O)NC(=O)[C@H](CC(N)=O)NC1=O)C(=O)N[C@@H](CO)C(=O)N[C@@H](Cc1c[nH]cn1)C(=O)N1CCC[C@H]1C(=O)N1CCC[C@H]1C(=O)N2 [[Y15D]]
block of ACh‐induced function, α3β2‐nAChR (α3β2‐nAChR): ≈ 50%
block of ACh‐induced function, α6/3β2β3‐nAChR (α6/3β2β3‐nAChR): ≈ 35%
Kd (human α7β2‐nAChR; K d α7β2, SEM): 9.9 ± 2.1 nM
koff (human α7β2‐nAChR; read-out: k off α7β2, SEM): 0.000298 s⁻¹
kon (human α7β2‐nAChR; read-out: k on α7β2, SEM): 43300 M⁻¹ s⁻¹
Kd (human α7‐only‐nAChR): 27 ± 3 nM
koff (human α7‐only‐nAChR): 0.00112 s⁻¹
kon (human α7‐only‐nAChR): 54800 M⁻¹ s⁻¹
